Reference: ChEMBL document CHEMBL1201862, “PubChem BioAssay data set” (2004)
Calls of active or inactive are those of the source.

Key:
P388/ADR = test: cells; assay type: functional; details: Mus musculus
SN12K1 = test: cells; assay type: functional; details: Homo sapiens
P388 = test: cells; assay type: functional; details: Mus musculus
[1] = target: Luciferin 4-monooxygenase (Photinus pyralis, UniProt P08659); test: inhibition of purified Photinus pyralis luciferase – biochemical, luminescence, dose response (AID 1891)
Chain of Luciferin 4-monooxygenase (P08659 whole entry): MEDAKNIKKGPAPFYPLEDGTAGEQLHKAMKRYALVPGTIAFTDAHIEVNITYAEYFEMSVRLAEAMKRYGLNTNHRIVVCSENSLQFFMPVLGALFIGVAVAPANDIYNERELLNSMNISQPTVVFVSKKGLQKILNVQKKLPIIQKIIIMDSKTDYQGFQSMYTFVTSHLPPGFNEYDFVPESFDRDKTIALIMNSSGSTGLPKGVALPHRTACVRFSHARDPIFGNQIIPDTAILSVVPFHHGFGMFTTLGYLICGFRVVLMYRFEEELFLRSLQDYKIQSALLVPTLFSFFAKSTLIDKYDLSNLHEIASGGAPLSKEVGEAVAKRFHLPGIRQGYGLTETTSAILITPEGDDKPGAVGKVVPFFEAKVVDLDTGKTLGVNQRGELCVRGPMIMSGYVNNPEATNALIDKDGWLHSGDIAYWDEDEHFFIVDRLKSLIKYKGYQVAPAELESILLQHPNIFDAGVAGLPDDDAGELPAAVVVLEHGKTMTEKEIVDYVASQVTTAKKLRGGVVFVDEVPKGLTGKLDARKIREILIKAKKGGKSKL

[2] = Luminescence Cell-Based Dose Confirmation HTS to Identify Inhibitors of Platelet Dense Granule Release. [Related pubchem assays: 1663 (Primary HTS), 1678 (Summary of Project)]; assay type: functional
[3] = target: T1, Polyadenylate-binding protein 1 (Homo sapiens, UniProt P11940); test: MLLE binding blockers, Cy5 peptide tracer – biochemical, fluorescence polarization, Cy5-PAM2 peptide, secondary, miRNA deadenylation inhibitor project, dose response (AID 602260); assay type: functional; details: read-out: IC50_Mean
T1 sequence (P11940 whole entry, the tested form may be a part): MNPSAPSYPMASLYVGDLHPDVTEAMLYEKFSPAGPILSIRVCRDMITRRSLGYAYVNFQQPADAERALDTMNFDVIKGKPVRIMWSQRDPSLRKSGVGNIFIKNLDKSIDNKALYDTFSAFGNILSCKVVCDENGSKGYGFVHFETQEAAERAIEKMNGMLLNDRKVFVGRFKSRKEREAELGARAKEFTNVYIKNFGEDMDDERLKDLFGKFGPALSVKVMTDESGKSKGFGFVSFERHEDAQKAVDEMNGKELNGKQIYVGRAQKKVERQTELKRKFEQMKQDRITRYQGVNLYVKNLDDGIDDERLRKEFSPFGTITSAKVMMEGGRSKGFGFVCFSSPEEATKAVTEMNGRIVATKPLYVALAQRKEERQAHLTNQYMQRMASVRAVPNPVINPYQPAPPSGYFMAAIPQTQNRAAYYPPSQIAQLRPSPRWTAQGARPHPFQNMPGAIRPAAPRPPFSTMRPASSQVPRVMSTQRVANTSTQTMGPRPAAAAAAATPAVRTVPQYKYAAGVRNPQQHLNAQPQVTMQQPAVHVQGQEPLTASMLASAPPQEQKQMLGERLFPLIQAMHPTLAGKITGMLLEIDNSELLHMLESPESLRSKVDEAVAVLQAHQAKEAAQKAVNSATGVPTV

[4] = target: T1, Polyadenylate-binding protein 1; test: MLLE domain peptide-binding blockers, IC50 – biochemical, fluorescence polarization, FITC-PAM2 peptide, dose response (AID 602259); assay type: functional; details: read-out: IC50_Mean
Large T antigen = Large T antigen (Simian virus 40, UniProt P03070); assay type: functional, Betapolyomavirus macacae;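 note: Confirmatory-stage PubChem screen for compounds that inhibit SV40 T antigen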
Chain of Large T antigen (P03070 whole entry): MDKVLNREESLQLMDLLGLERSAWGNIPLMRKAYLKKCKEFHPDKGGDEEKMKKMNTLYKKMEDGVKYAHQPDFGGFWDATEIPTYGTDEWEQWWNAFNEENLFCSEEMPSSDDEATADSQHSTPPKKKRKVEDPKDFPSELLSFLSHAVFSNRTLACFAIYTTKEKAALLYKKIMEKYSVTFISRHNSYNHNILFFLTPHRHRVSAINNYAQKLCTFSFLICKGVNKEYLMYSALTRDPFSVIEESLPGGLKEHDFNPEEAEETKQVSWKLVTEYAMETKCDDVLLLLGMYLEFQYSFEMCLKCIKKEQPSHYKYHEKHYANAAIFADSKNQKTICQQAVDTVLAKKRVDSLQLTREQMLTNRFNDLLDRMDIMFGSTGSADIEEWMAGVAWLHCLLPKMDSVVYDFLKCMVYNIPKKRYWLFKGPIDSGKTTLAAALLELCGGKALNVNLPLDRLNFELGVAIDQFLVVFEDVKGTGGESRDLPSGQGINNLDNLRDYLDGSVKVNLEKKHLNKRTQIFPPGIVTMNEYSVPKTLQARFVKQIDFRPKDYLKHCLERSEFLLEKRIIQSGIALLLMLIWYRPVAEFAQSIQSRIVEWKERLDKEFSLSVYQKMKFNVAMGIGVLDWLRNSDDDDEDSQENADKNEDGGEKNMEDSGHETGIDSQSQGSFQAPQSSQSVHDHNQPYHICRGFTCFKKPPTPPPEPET

[5] = viability of PTEN-deleted HCT116 cells – cell-based, HCT116 PTEN knockout, dose response (AID 1047); assay type: functional;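 note: HCT116 colon tumor cells with PTEN knocked out; cells exposed to compound for 60 hours before readout; potency for loss of cell viability measured by luminescence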
[6] = viability of HCT116 lacking mutant beta-catenin – cell-based, human colon tumor, dose response (AID 1045); assay type: functional;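 note: HCT116 colon tumor cells with beta catenin knocked out; cells exposed to compound for 60 hours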
[7] = NIH-3T3 fibroblast cytotoxicity, dose response, cytotoxicity control, cell-based, fluorescence, Alamar Blue, secondary assay (AID 2327); assay type: functional;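 note: NIH-3T3 mouse fibroblasts cultured with fluconazole at 8 µg/mL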
[8] = fluconazole-exposed Candida albicans growth modulators – fluorescence, retest, confirmation (AID 2467); assay type: functional, cell-based
[9] = Luminescence Cell-Based Dose Retest to Confirm Inhibitors of Cancer Stem Cells. [Related pubchem assays (depositor defined):AID2717, AID2721]; assay type: functional; details: Homo sapiens
[10] = HEK-293T viability loss after treatment – luminescence, T-cell screen hits, cytotoxicity control for TCR NF-kB inhibitor project, dose response (AID 489026); assay type: functional, cell-based;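 note: cells exposed to compound about 14 hours before the viability readout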
Cytochrome P450 2C9 = Cytochrome P450 2C9 (Homo sapiens, UniProt P11712)
Chain of Cytochrome P450 2C9 (P11712 whole entry): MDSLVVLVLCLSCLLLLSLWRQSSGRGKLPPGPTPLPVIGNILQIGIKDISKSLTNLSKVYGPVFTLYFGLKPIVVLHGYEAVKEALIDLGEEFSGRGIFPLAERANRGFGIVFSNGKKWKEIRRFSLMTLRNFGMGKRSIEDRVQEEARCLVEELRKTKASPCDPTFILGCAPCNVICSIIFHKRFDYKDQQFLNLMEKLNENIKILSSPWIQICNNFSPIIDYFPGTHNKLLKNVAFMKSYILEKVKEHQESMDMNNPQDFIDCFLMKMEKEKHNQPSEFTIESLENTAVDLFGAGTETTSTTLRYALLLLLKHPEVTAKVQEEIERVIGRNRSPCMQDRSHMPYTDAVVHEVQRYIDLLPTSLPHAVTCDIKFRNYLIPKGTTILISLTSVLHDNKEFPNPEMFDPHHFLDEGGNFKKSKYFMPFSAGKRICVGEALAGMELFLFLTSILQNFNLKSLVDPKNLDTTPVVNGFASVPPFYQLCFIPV

[11] = target: T2, Rac GTPase-activating protein 1 (Homo sapiens, UniProt Q9H0H5); test: blockers of MgcRacGAP-driven Rac1 GTP hydrolysis – biochemical, ADP Hunter fluorescence, primary and confirmatory, confirmation (AID 624330); assay type: functional
T2 sequence (Q9H0H5 whole entry): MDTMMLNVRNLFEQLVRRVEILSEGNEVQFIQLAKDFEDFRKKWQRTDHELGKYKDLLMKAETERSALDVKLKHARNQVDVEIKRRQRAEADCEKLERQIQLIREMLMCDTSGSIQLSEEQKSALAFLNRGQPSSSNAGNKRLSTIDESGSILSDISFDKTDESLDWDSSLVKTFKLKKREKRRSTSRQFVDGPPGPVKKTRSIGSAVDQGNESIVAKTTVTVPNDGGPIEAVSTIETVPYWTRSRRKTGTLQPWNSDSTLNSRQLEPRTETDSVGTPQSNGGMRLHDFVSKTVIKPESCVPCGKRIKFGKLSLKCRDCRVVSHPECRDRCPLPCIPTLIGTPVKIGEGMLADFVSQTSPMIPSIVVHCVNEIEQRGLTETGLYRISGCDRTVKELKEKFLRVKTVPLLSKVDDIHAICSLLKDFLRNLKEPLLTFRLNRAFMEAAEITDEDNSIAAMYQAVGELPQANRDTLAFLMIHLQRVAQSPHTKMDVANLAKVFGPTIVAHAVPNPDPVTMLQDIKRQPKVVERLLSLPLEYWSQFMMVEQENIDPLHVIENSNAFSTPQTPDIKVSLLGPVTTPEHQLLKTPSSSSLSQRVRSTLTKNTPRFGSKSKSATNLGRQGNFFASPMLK

[12] = Luminescence Cell-Based Dose Response HTS to Identify Inhibitors of 5'UTR Stem-Loop Driven Prion Protein mRNA Translation in H4 Neuroglioblastoma Cells. [Related pubchem assays: 1827 (Project Summary), 1813 (Primary HTS)]; assay type: functional
INS1 = test: INS-1E survival protection against cytokine death – cell-based, luminescence, retest, dose response (AID 449756); assay type: functional; details: Rattus norvegicus;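 note: cell death triggered by IL-1 beta plus TNF-alpha plus IFN-gamma mixture; protective hits raise ATP signal compared with cytokine alone wells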
[13] = reduction of Shn3 3'UTR-driven luciferase in osteoblasts – cell-based, Clone20 osteoblasts, firefly luciferase, cherry-picked, dose response (AID 624132); assay type: functional;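 note: firefly luciferase luminescence from reporter carrying the Shn3 3'UTR in osteoblasts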
[14] = loss of viability in HepG2 cells – cell-based, CellTiter-Glo, cherry-picked, cytotoxicity control for Shn3 inhibitor project, dose response (AID 624134); assay type: functional
[15] = non-specific 3'UTR reporter inhibition in Clone20-Shn3RL – cell-based, Renilla luciferase, cherry-picked, counter-screen for Shn3 inhibitor project, dose response (AID 624133); assay type: functional
Leucine aminopeptidase = target: T3, Leucine aminopeptidase (Plasmodium falciparum 3D7, UniProt Q8IL11); test: P. falciparum M17LAP inhibitors, primary screen, biochemical, fluorogenic H-Leu-NHMec substrate, 1536-well (AID 1619); assay type: functional
T3 sequence (Q8IL11 whole entry): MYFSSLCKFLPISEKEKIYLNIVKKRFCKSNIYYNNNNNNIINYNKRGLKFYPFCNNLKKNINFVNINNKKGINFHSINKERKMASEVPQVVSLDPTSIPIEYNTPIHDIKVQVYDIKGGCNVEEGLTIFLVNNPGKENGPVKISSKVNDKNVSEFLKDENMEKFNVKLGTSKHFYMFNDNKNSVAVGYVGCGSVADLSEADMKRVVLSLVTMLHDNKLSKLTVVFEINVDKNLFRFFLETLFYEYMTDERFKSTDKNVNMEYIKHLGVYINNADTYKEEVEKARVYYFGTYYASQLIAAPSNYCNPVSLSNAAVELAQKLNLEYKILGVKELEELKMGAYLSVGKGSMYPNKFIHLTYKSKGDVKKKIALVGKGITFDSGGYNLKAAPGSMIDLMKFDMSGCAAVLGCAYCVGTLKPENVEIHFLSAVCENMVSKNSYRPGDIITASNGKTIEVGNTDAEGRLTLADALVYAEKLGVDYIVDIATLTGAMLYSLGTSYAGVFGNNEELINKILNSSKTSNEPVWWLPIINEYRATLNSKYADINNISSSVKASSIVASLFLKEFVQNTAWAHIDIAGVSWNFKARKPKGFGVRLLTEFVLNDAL

[16] = HIV-1 AD8 envelope cell-cell fusion blockers – cherry-pick, dose response (AID 652062); assay type: functional, cell-based;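 note: luciferase signal from cell-cell fusion driven by HIV-1 clade B AD8 Env; potency is for inhibitors of fusion seen as a drop in luminescence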

## CC1CC(C)CC(C)C(O)/C(C#N)=C/C=C/CC(C2CCCC2C(=O)O)OC(=O)CC(O)C(C)C1 (configuration not stated)
P388/ADR
  GI50: < 0.01 µM (active)
SN12K1
  GI50: < 0.0109 µM (active)
P388
  GI50: < 0.01 µM (active)

## COc1ccccc1NC(=O)NC1(C(=O)N2CCCCCC2)CCCCC1
[1]
  EC50: > 112 µM (not active)
[2]
  EC50: > 112 µM (not active)

## O=[N+]([O-])c1ccc(S(=O)(=O)Nc2ccc3c(c2)OCCO3)cc1
[3]
  IC50: > 66 µM (inactive)
[4]
  IC50: > 66 µM (inactive)

## N#C/C(=C\c1ccccc1OCc1ccc(C(=O)O)cc1)C(=O)Nc1ccc(O)cc1
Large T antigen
  IC50: 11.5 µM (active)

## COc1ccc(NC(=O)NCCCN2CCN(c3cc(C)ccc3C)CC2)cc1
[5]
  EC50: 10.2 µM (active)
[6]
  EC50: 7.42 µM (active)

## CN(C)CCNC(=O)c1ccc(Cl)c2ccc(-c3ccccc3)nc12
P388/ADR
  GI50: 1.95 µM (inactive)
SN12K1
  GI50: 2.28 µM (inactive)
P388
  GI50: 1.13 µM (inactive)

## Cc1ccccc1C(=O)Nc1nnc(-c2ccc(F)cc2)o1
[7]
  EC50: > 150 µM (inactive)
[8]
  EC50: 1.25 µM (active)
[5]
  EC50: 18.4 µM (active)
[6]
  EC50: 16.6 µM (active)

## O=C(Nc1ncc(Cc2ccc(SC(F)F)cc2)s1)c1ccc(OC(F)F)cc1
[9]
  AC50: < 0.16 µM (active)
[10]
  IC50: > 80 µM (inactive)

## COCC1N=C(c2cc(OC)c(OC)c(OC)c2-c2cc3c(cc2[C@@H](C)O)OCO3)O[C@H]1c1ccccc1 (some centres not stated)
P388/ADR
  GI50: > 100 µM (inactive)
SN12K1
  GI50: 55.5 µM (inactive)
P388
  GI50: 64.3 µM (inactive)

## CCNC(=O)c1c(NC(C)=O)sc2c1CCCC2
[1]
  EC50: > 112 µM (not active)
[2]
  EC50: 15.2 µM (active)
Cytochrome P450 2C9
  AC50: 17.8 µM (inconclusive)

## Cc1cnc([N+](=O)[O-])n1CCOC(=O)NC(=O)c1cccc(F)c1
[1]
  EC50: > 112 µM (not active)
[2]
  EC50: 18.4 µM (active)

## COc1cc(/C=N/N(C)c2ccccc2)ccc1O
Large T antigen
  IC50: 8.47 µM (active)
[11]
  IC50: 15.6 µM (active)

## N#CC(c1ccc(Cl)cc1)c1ccc2c(C(F)(F)F)cc(C(F)(F)F)nc2n1 (configuration not stated)
[12]
  EC50: 8.03 µM (active)
[5]
  EC50: 0.349 µM (active)
[6]
  EC50: 0.321 µM (active)
INS1
  AC50: 0.54 µM (active)
[13]
  AC50: 0.487 µM (active)
[14]
  AC50: 2.97 µM (active)
[15]
  AC50: 1.38 µM (active)

## O=C(NC(=S)Nc1cccc(Cl)c1N1CCOCC1)c1cccs1
[3]
  IC50: > 66 µM (inactive)
[4]
  IC50: > 66 µM (inactive)

## CCOc1ccc(NC(=O)C2CC=CCC2C(=O)O)cc1 (configuration not stated)
Leucine aminopeptidase
  IC50: 10.5 µM (active)

## COc1cc2c(cc1OC)-c1cc(Nc3ccccc3)nc(=O)n1CC2
[1]
  EC50: > 112 µM (not active)
[2]
  EC50: 1.63 µM (active)

## COc1cc(/C=N\NC(=O)c2ccc(Cn3nc([N+](=O)[O-])c(Cl)c3C)o2)ccc1O
Large T antigen
  IC50: 32.7 µM (active)
[11]
  IC50: 30.5 µM (active)

## Cc1oc(C(C)(C)C)cc1C(=O)NC(Cc1ccccc1)C(=O)O (configuration not stated)
Leucine aminopeptidase
  IC50: 12.7 µM (active)

## CCN(CC)CCOC(=O)Cc1cccc2c(=O)cc(-c3ccccc3)oc12
P388/ADR
  GI50: 122 µM (inactive)
SN12K1
  GI50: 24.7 µM (inactive)
P388
  GI50: 206 µM (inactive)

## Cc1ccccc1OCCCCn1cnc2ccccc21
INS1
  AC50: 6.87 µM (active)
[16]
  AC50: 4.16 µM (active)

## Cc1ccccc1-c1nc(S(=O)(=O)c2ccccc2)c(N2CCCC2)o1
[3]
  IC50: > 66 µM (inactive)
[4]
  IC50: > 66 µM (inactive)

## Cc1cc(C)c(C2=NO[C@@H]3[C@H]2C(=O)C=C2N(Cc4ccccc4)CCO[C@@]23O)c(C)c1
P388/ADR
  GI50: > 100 µM (inactive)
SN12K1
  GI50: > 100 µM (inactive)
P388
  GI50: > 100 µM (inactive)

## Nc1nc(F)nc2c1ncn2C1OC(COP(=O)(O)O)C(O)C1O (configuration not stated)
P388/ADR
  GI50: 4.22 µM (inactive)
SN12K1
  GI50: 18.1 µM (inactive)
P388
  GI50: 3.24 µM (inactive)

## COc1ccc(NC(=O)C2CCCN(c3nn4c(=O)cc(C)nc4s3)C2)cc1 (configuration not stated)
[1]
  EC50: > 112 µM (not active)
[2]
  EC50: > 112 µM (not active)

## Cc1cc2ncn(-c3ncccc3[N+](=O)[O-])c2cc1C
[3]
  IC50: > 66 µM (inactive)
[4]
  IC50: > 66 µM (inactive)

## CCN(C(=O)CN1C(=O)NC(c2ccccc2)(c2ccccc2)C1=O)c1ccccc1
[1]
  EC50: > 112 µM (not active)
[2]
  EC50: > 112 µM (not active)

## COc1cc(/C=C/C(=O)Nc2nnc(CC(C)(C)C)s2)cc(OC)c1OC
[3]
  IC50: > 66 µM (inactive)
[4]
  IC50: > 66 µM (inactive)

## Cc1ccc(S(=O)(=O)CCC(=O)OCC(=O)NCC(=O)Nc2cccc(C)c2C)cc1
[1]
  EC50: > 112 µM (not active)
[2]
  EC50: > 112 µM (not active)

## N#Cc1c(-c2ccco2)c2c([nH]c1=S)CCCC2
Large T antigen
  IC50: 37.7 µM (active)

## C[C@@H](CN1CC(=O)NC(=O)C1)N1CC(=O)NC(=O)C1 [DEXRAZOXANE]
P388/ADR
  GI50: 394 µM (inactive)
SN12K1
  GI50: 24.2 µM (inactive)
P388
  GI50: 49.3 µM (inactive)

## O=C(O)C12CC3CC(C1)CC(n1ncc(NCc4ccccc4)c(Cl)c1=O)(C3)C2
Leucine aminopeptidase
  IC50: 90 µM (active)

## CCOc1ccc(NC(=O)CSc2nnc(CCNC(=O)c3ccc(OC)cc3)n2CC)cc1
Leucine aminopeptidase
  IC50: 8.71 µM (active)

## COc1cc(C2c3cc4c(cc3[C@@H](Nc3cccc([N+](=O)[O-])c3)C3COC(=O)[C@H]23)OCO4)cc(OC)c1O (some centres not stated)
P388/ADR
  GI50: 0.783 µM (active)
SN12K1
  GI50: 0.589 µM (active)
P388
  GI50: < 0.0193 µM (active)

## Cc1cc(C)c(NC(=O)CN2C(=O)NC3(CCCCC3)C2=O)c(C)c1
Leucine aminopeptidase
  IC50: 19.5 µM (active)

## CC1CC=CC(O)C1 (configuration not stated)
P388/ADR
  GI50: > 100 µM (inactive)
SN12K1
  GI50: > 100 µM (inactive)
P388
  GI50: 55 µM (inactive)

## CCN1C(=O)C(=Cc2ccc(C)s2)C(=O)N(CC)C1=S
[5]
  EC50: 9.84 µM (active)
[6]
  EC50: 31.9 µM (active)
